Values joined by “and” are separate entries in the source; they are usually repeats but may differ in a detail not shown here. Identical values can stand only once.
How the values were obtained:
GPR84 [1] = molecular target: T1, GPR84 (Homo sapiens, UniProt Q9NQS5); experiment: Radiotracer cell binding, hGPR84-HEK-293 vs control HEK-293 cells, with or without GLPG1205 block; type: cell-based; parameters: host or cells: HEK-293 cells, lentivirally transduced, puromycin-selected monoclonal line; details: for fold higher binding to hGPR84-HEK-293 cells vs control cells: 40 min incubation; for reduction of tracer binding in hGPR84-HEK293 cells by GLPG1205: co-incubation with GLPG1205 35 μM (1000× by mass), 40 min
Procedure: GPR84-transduced HEK-293 cells and control HEK-293 cells were plated at a concentration of 3×10^5 cells per well in media (DMEM with 10% FBS and 1% anti-anti) into three 12-well plates 16-24 hr prior to the cell binding assay. Once cells reached ˜90% confluency, the radiotracer was prepared. […] The radiotracer was diluted in DMEM without FBS or antibiotic to yield a 30 mL solution where the amount of activity was 25 μCi in 500 μL. The first 12-well plate was incubated for 20 minutes at 37° C. and 5% CO2 in air while the next was incubated for 40 minutes at the same conditions. Cells were subsequently washed with PBS, trypsinized, resuspended in DMEM+10% FBS, and pipetted into gamma counting tubes at 500 μL volume. Radioactivity levels bound to cells were measured in a gamma counter (Hidex Oy, Helsinki, Finland), and cell counts were recorded using Trypan blue and an automatic cell counter to normalize radioactivity levels to cell count.
At the indicated time points, plates were placed on ice, washed three times with ice-cold phosphate-buffered saline (PBS), and trypsinized (150 μL per well) for 2 min at 37° C. The trypsin was neutralized by adding 600 μL DMEM containing 10% FBS (original cell culture media) to each well. […] Gamma counting was performed to quantitate percentage radiotracer uptake by the cells and decay-corrected radioactivity was determined (Hidex automated gamma counter). Finally, cells in each gamma counting tube were counted by using the Countess cell counter (Life Technologies). Cell binding was expressed in terms of % uptake/million cells.
GPR84-transduced HEK-293 cells and control HEK-293 cells from Creative Biogene were plated at a concentration of 3×10^5 cells per well in media (DMEM with 10% FBS and 1% anti-anti) into a 12-well plate for 16-24 hr. HEK-293 cells were stably transduced via the following process from Creative Biogene: construction of pLVX-CMV-Human-GPR84-PGK-Puro lentiviral expression plasmid, lentivirus production, lentivirus transduction, puromycin selection of polyclonal stable HEK293-Human-GPR84 cells, screening of monoclonal stable HEK293-Human-GPR84 cells via limited dilution, validation using qPCR, then mycoplasma detection by PCR and Lonza kit. Once cells reached ˜90% confluency, the radiotracer was prepared. The radiotracer was diluted in DMEM without FBS or antibiotic to yield a 30 mL solution such that the amount of activity was 50 μCi/mL for ^11C or 2 μCi/mL for ^18F. […] The 12-well plate was incubated for 40 min at 37° C. and 5% CO2 in air. […] Radioactivity levels bound to cells were measured in a gamma counter (Hidex Oy, Helsinki, Finland), and cell counts were recorded using Trypan blue and an automatic cell counter to normalize radioactivity levels to cell count.

[2] = system: human monocyte-derived macrophages (hMDMs); experiment: hMDM radioactive cell binding assay, with or without LPS; type: cell-based; details: LPS 100 ng/mL; for tracer signal in LPS-challenged hMDMs after co-incubation with GLPG1205: GLPG1205 block
Procedure: CD14^+ monocytes isolated from PBMCs from human peripheral blood were plated 10×10^6 cells per 10 cm petri dish in 8-10 mL complete growth medium (for quantitative PCR) or 10^6-10^5 cells per well in 1 mL complete growth medium into one 12-well plate per blood donor (radioactive cell binding) and incubated 7-10 days at 5% CO2 in air at 37° C. These cells were then treated with 100 ng/mL LPS in complete growth medium 24 hr or 72 hr prior to experimentation according to previous working concentrations in the literature.
Human monocyte-derived macrophages (hMDMs) were plated at a concentration of 10^6-10^5 cells per well in media (RPMI 1640+glutamax with 10% FBS, 1% anti-anti, and 50 ng/mL M-CSF) into one 12-well plate per blood donor. Once cells adhered to the plate (˜24 hr), 100 ng/mL lipopolysaccharides (LPS) was applied to two of the three rows of the plate. 24 hr later, the [^11C]GLPG38, [^11C]MGX-10S, or [^18F]MGX-110S radiotracer was prepared. The radiotracer was diluted in RPMI 1640 without FBS or antibiotic to yield a 30 mL solution such that the amount of activity was 50 μCi/mL for ^11C or 2 μCi/mL for ^18F. Additionally, a blocking solution was prepared consisting of 35 μM GLPG1205 dissolved in DMSO and added to RPMI 1640 media+tracer solution. The 12-well plates were incubated for 30 min at […] and 5% CO2 in air. Following incubation, the radioactive media was removed and replaced with 500 μL fresh media, and a 10 min efflux was conducted. After efflux, the media was collected into a gamma counting tube to measure supernatant, and the cells were washed with PBS, trypsinized, resuspended in RPMI 1640+glutamax+10% FBS, then pipetted into gamma counting tubes at 500 μL volume.
Radioactivity levels bound to cells were measured in a gamma counter (Hidex Oy, Helsinki, Finland), and cell counts were recorded using Trypan blue and an automatic cell counter to normalize radioactivity levels to cell count.

GPR84 [3] = molecular target: T1, GPR84; experiment: In vitro autoradiography of human colon sections, active UC vs healthy; type: binding; parameters: from tissue; host or cells: human colon sections, active ulcerative colitis and matched healthy samples; details: for tracer binding in active UC colon tissue vs matched healthy samples: 5 μm sections; for tracer signal in UC colon tissue after pre-blocking with GLPG1205: 1000× GLPG1205 by mass
Procedure: To investigate alterations in GPR84 mRNA expression under pro-inflammatory conditions, quantitative polymerase-chain reaction was performed using mouse brain and human monocyte-derived macrophage cells (hMDMs) treated with lipopolysaccharides (LPS) 24 hr prior to RNA extraction. [^11C]GLPG38 and [^18F]MGX-110S were made via [^11C]methylation of the desmethyl precursor and by copper mediated [^18F]fluorination of Bpin precursor respectively. Binding specificities of both tracers were assessed using human GPR84-stably-expressing human embryonic kidney cells (HEK-293) versus control HEK-293 cells. [^11C]GLPG38 binding was also assessed in hMDMs+/−treatment with LPS. Dynamic PET/CT imaging of healthy mice was commenced just prior to injection of [^11C]GLPG38 (100-150 μCi) or [^18F]MGX-110S (60-120 μCi) to determine biodistribution and kinetics. In vitro autoradiography (ARG) of human colon sections (5 μm) was conducted to test the ability of each tracer to detect innate immune activation in active UC.

T1 sequence (Q9NQS5 whole entry): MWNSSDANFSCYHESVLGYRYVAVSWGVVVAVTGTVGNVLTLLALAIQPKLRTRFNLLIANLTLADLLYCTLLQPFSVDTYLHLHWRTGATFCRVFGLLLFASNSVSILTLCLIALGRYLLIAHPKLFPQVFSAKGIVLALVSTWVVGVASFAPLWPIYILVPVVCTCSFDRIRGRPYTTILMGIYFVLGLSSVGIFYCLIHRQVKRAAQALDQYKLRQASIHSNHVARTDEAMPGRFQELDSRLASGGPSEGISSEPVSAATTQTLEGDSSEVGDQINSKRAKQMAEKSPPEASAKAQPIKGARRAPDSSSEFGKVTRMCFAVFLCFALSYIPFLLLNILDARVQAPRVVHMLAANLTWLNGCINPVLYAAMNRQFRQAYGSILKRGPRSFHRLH

Row | SMILES | fold higher binding to hGPR84-HEK-293 cells vs control cells (GPR84 [1]) | reduction of tracer binding in hGPR84-HEK293 cells by GLPG1205 (GPR84 [1]) | tracer binding in LPS-challenged hMDMs compared to unstimulated cells [2] | tracer signal in LPS-challenged hMDMs after co-incubation with GLPG1205 [2] | tracer binding in active UC colon tissue vs matched healthy samples (GPR84 [3]) | tracer signal in UC colon tissue after pre-blocking with GLPG1205 (GPR84 [3])
1 | Cc1cc2c(cc1O[11CH3])CCn1c-2c(C)c(OC[C@@H]2COCCO2)cc1=O [[^11C]GLPG38] | 13.5 fold | 90% and > 90% | significantly higher binding | reduced to baseline | marked increase of binding | markedly attenuated
2 | O=c1nc(OC[C@@H]2COCCO2)cc2n1CCc1cc([18F])ccc1-2 [^18F-MGX-110S] | 33.4 fold and 25 fold | > 90% | significantly higher binding | reduced to baseline | marked increase of binding | markedly attenuated

Reference: patent publication US20260091147A1, “METHOD FOR DETECTING INNATE IMMUNE ACTION IN VIVO USING GPR84-PET” (The Board of Trustees of the Leland Standford Junior …, priority 2023, published 2026)
